Experimental data: article PMC9386913 (Arthritis Research & Therapy, 2022)

What was measured:
THP-1 cells = test: In vitro tachyphylaxis model: daily treatment of THP-1 cells, LPS-stimulated TNF; details: up to 14 days, 0.1 or 1 μM CC-99677 or 1 μM p38 inhibitors
LPS-induced TNF = system: LPS-induced TNF; design: method as in PMID 29549113; details: mouse model of NOMID, up to 4 weeks after dosing; cited from earlier work
[1] = system: c-Jun N-terminal kinase (JNK); details: THP-1 cells, macrophages, and synoviocytes; cited from earlier work
TNF = system: TNF; design: method as in PMID 26904383; details: similar assay and clinical study design; no reference printed, BCT197 paper is ref 53; cited from earlier work

With `CCCNC(=O)c1cn2ncnc(Nc3cc(C(=O)NC4CC4)ccc3C)c2c1C` [BMS-582949] the “LPS-stimulated TNF production under continued daily treatment” value (“LPS-stimulated TNF production” below) (THP-1 cells) was “beginning on day 9, loss of TNF inhibitory effect”.

In the case of `C[C@@H]1CN(Cc2ccc(F)cc2)[C@@H](C)CN1C(=O)c1cc2c(C(=O)C(=O)N(C)C)cn(C)c2cc1Cl` [SCIO-469], the “LPS-stimulated TNF production” value (THP-1 cells) is reported as “beginning on day 9, loss of TNF inhibitory effect”.

For `O=C(CO)N1CCC(c2[nH]nc(-c3ccc(Cl)cc3)c2-c2ccncn2)CC1` [CDD-111], the “Inhibition of LPS-induced TNF” value (LPS-induced TNF) is listed as “did not”.

In the case of `C[S+]([O-])c1ccc(-c2nc(-c3ccncc3)c(-c3ccc(F)cc3)[nH]2)cc1` (centres unmarked) [SB203580], the “Activation of c-Jun N-terminal kinase (JNK) upon treatment” value [1] is given as “activation of c-Jun N-terminal kinase (JNK)”.

In the case of `O=c1ncn2nc(Sc3ccc(F)cc3F)ccc2c1-c1c(Cl)cccc1Cl` [VX-745], the “Activation of c-Jun N-terminal kinase (JNK) upon treatment” value [1] is listed as “activation of c-Jun N-terminal kinase (JNK)”.

With `Cc1ccc(-n2nc(C(C)(C)C)cc2NC(=O)Nc2ccc(OCCN3CCOCC3)c3ccccc23)cc1` [BIRB-796] the “LPS-stimulated TNF production” value (THP-1 cells) was “beginning on day 9, loss of TNF inhibitory effect”.

For `Cc1cnc(-c2ccnc(C(C)(C)O)n2)cc1-n1c(C)cc(OCc2ncc(F)cc2F)c(Cl)c1=O` [ATI-450], the “Inhibition of LPS-induced TNF” value (LPS-induced TNF) is given as “showed inhibition of LPS-induced TNF for up to 4 weeks after dosing”.

For `Cc1ccc(C(=O)NC2CC2)cc1-n1ncc(C(=O)c2cccc(C#N)c2)c1N` [BCT197], the “Sustained TNF inhibition over treatment period” value (TNF) is listed as “loss of effect”.
